Source: US20090247511A1, “SYNERGISTIC INSECTICIDE AND FUNGICIDE MIXTURES” (BAYER CROPSCIENCE AG, priority 2006, published 2009)

What was measured:
[1] = system: Myzus persicae; assay: Myzus persicae test (cabbage leaf dip, kill rate, Colby synergy); type: in vivo
[2] = system: Phaedon cochleariae larvae; assay: Phaedon cochleariae larvae test (cabbage leaf dip, kill rate, Colby synergy)

Cn1cc(C(=O)Nc2ccccc2C2CC2C2CC2)c(C(F)F)n1 (stereo not drawn) [Compound (I-4)]
0%: Kill in % after 1d ([1]; Table A1, 200 ppm) | Kill in % after 1d ([1]; Table A2, 200 ppm) | Kill in % after 4d ([2]; Table B1, 200 ppm) | Kill in % after 6d ([2]; Table B2, 200 ppm, after 6 d) | Kill in % after 4d ([2]; Table B3, 200 ppm) | Kill in % after 4d ([2]; Table B3, 400 ppm)
